Experimental data as given in US10874669B2 (WAYNE STATE UNIVERSITY, priority 2018, dated 2020).
“Also recorded” adds a separate entry of the source. Read-outs that look alike come from different tables or passages of the source.

Legend:
PC12 cells [1] = experiment: MTT viability of PC12 cells treated with seeded α-syn aggregates; format: cell-based, rat; details: 30D samples, 24 h treatment, compared to control (seeded α-syn alone 37%)
Procedure: When PC12 cells were treated with the aggregates formed by 0.5% PFFs seeding at 30D, it was observed that the viability went down to 37% when compared to control. […] The viability values of PC12 cells when treated with α-syn seeded samples in the presence of (−)-91b and (−)-95a were 71% and 72% at 30D when compared to control (FIG. 5B).
Further, the cytotoxicity of the aggregates formed was evaluated in PC12 cells. Briefly, PC12 cells were treated with α-syn aggregates such that its concentration is 10 μM. 24 h following treatments, viability was measured by MTT assay as described previously.

cloned rat D2L receptors = cloned rat D2L receptors (Rattus norvegicus (Rat), UniProt P61169); experiment: [3H]spiroperidol competition binding, rat D2L receptors in HEK-293 cells; details: values of Table 3; for Ki: rat D2 in HEK-293 cells; for D2/D3: ratio of Ki values
From the text: All these procedures were described by us previously.

human DA D3 receptors = human DA D3 receptors (Homo sapiens (Human), UniProt P35462); experiment: [35S]GTPγS binding stimulation, human D3 receptors in CHO cells; format: biochemical; details: for Emax: compared with maximum stimulation by full agonist DA
α-syn = α-syn (Homo sapiens (Human), UniProt P37840); experiment: Thioflavin T assay of α-syn aggregation seeded with 0.5% PFFs; format: biochemical; details: 172.9 μM compound, 30D, 37° C., no agitation
Procedure: The α-syn assay was carried out by following the procedures developed by us earlier. The compounds (−)-91b (D636) and (−)-95a (D653) were incubated with α-syn seeded with 0.5% PFFs for a period of 30D at 37° C. without agitation. […] Both (−)-91b and (−)-95a lead to a significant decrease in the ThT fluorescence (p<0.0001) when compared to α-syn seeded with 0.5% PFFs alone at 30D (FIG. 5A).
The experimental conditions were followed as described in our earlier publication. Briefly, α-syn fibrils were formed by incubating purified α-syn at a concentration of 5 mg/mL at 37° C. under constant agitation at 1000 rpm in a Thermomix R shaker (Eppendorf, Hamburg, Germany) for a period of 5 days. These fibrils at a concentration of 0.5% were used to seed the aggregation of α-syn at 1.25 mg/ml (86.45 μM) with or without compounds D636 or D653 at a concentration of 172.9 μM without agitation at 37° C. for a period of 30 days. Samples were collected at 0D and 30D. Thioflavin T (ThT) assay was performed using these samples as described previously to evaluate the extent of aggregation.

human DA D2 receptors = human DA D2 receptors (Homo sapiens (Human), UniProt P14416); experiment: [35S]GTPγS binding stimulation, human D2 receptors in CHO cells; format: biochemical; details: for Emax: compared with maximum stimulation by full agonist DA
[2] = test system: reserpine-induced hypolocomotion in rats; experiment: Reversal of reserpine-induced hypolocomotion in rats; details: 10 μMol/kg, ip; for duration of locomotor activation: locomotion monitored for 6 h; for reversal of reserpine-induced akinesia / hypolocomotion (horizontal activity): reserpine 5 mg/kg sc, 18 h pretreatment, rats
Procedure: In this model depletion of catecholamines by reserpine results in catalepsy in rats.
The following commercially available drug was used in the experiment: reserpine hydrochloride (Alfa Aesar). […] The compounds for this study were administered in a volume of 0.1-0.2 mL for subcutaneous administration and 0.5-0.7 ml for interaperitoneal administration into each rat.
In rodent studies, animals were male and female Sprague-Dawley rats from Harlan (Indianapolis, Ind.) weighing 220-225 g unless otherwise specified. Animals were maintained in sawdust-lined cages in a temperature and humidity controlled environment at 22±1° C. and 60±5% humidity, respectively. A 12 h light/dark cycle was maintained, with lights on from 6:00 a.m. to 6:00 p.m. They were group-housed with unrestricted access to food and water. All experiments were performed during the light component.
Reserpine (5.0 mg/kg, sc) was administered 18 h before the injection of drug or vehicle. The rats were placed individually in the chambers for 1 h for acclimatization before administration of the test drugs or vehicle. Immediately after administration of drug or vehicle, animals were individually placed in Opto-Varimex 4 animal activity monitor chamber (Columbus Instruments, Ohio, USA) to start measuring locomotor activity. Locomotion was monitored for 6 h. […] The data were presented as horizontal activity (HACTV). […] The data were analyzed by one-way analysis of variance (ANOVA) followed by Dunnett's post hoc test.

PC12 cells [3] = experiment: MTT neuroprotection against 6-OHDA-induced toxicity; format: cell-based, rat; details: for concentration of greatest protective effect: 24 h pretreatment, then 75 μM 6-OHDA 24 h; for increase in cell survival compared to 6-OHDA treated alone: at concentration of greatest protective effect, 75 μM 6-OHDA
Procedure: To investigate the neuroprotection property of the selected target molecules (−)-91b, (−)-95a and (−)-95c against 6-OHDA-induced cytotoxicity, we used dopaminergic rat adrenal Pheochromocytoma PC12 cells. As reported above, treatment of PC12 cells with 6-OHDA at 75 μM for 24 h produced ˜50% loss in cells viability and this concentration was used in subsequent experiments. […] However, (−)-95a produced some incremental toxicity starting at 20 μM dose (FIG. 4B). The potential neuroprotective effects of (−)-91b, (−)-95a and (−)-95c against 6-OHDA-induced toxicity were evaluated next. […] At those concentration both drugs increased cell survival by ˜20% compared to 6-OHDA (75 μM) treated alone (FIGS. 4D and 4F), indicating neuroprotective effect of these drugs. […] This could be due to the fact that the compound by itself produced toxicity to the cells at doses ≥20 μM and the presence of 6-OHDA enhanced the toxicity (FIG. 4B).
PC12 cells (ATCC CRL1721.1, Manassas, Va., USA), a rat adrenal pheochromocytoma cell line, were cultured in T-75 flasks (Greiner Bio One, Frickenhausen, Germany) and maintained in RPMI 1640 medium supplemented with 10% heat inactivated horse serum, 5% fetal bovine serum, 100 U/ml penicillin, and 100 μg/mL streptomycin at 37° C. in 95% air/5% CO2. Stock solutions of (−)-91b, (−)-95a, (−)-95c, and 6-hydroxydopamine (6-OHDA) were prepared in dimethylsulfoxide (DMSO) and aliquots were stored at −20° C. and −80° C., respectively. For all experiments assessing neuroprotective effects of the test compounds, PC12 cells were pretreated with indicated concentrations of (−)-91b, (−)-95a and (−)-95c for 24 h and then treated with 75 μM 6-OHDA for another 24 h. The control cells were treated with above media containing 0.01% DMSO only.
PC12 cells were plated at 17000 cells/well density in 100 μL of media in 96-well plates and incubated at 37° C. under 5% CO2 atmosphere for 24 h. Cells were treated with varying concentrations of the test compounds to determine their direct effect on cell viability. Neuroprotection experiments were conducted by treating cells for 24 h with varying concentrations of (−)-91b, (−)-95a and (−)-95c. Then the drug containing media was replaced with fresh culture media followed by treatment with 75 μM of 6-OHDA alone for an additional 24 h under the same condition. After incubation for 24 h, 5 mg/mL MTT solution (prepared in Dulbecco's phosphate-buffered saline) was added to the cells (to a final concentration of 0.5 mg/mL) and the plates were further incubated at 37° C. in 95% air/5% CO2 atmosphere for 3-4 h to produce dark-blue formazan crystals. Afterward, the plates were centrifuged at 450 g for 10 min and the supernatants were carefully removed. Formazan crystals were dissolved by adding 100 μL of methanol:DMSO (1:1) mixture to each well and shaking gently at 400 rpm for 30 min at room temperature on a Thermomix R shaker (Eppendorf, Hamburg, Germany). The absorbance was measured on a microplate reader (Biotek Epoch, Winooski, Vt., USA) at 570 nm with background correction performed at 690 nm. Data from at least three experiments were analyzed using GraphPad software (version 6, San Diego, Calif., USA). Cell viability was defined as […] compared to untreated controls.

cloned rat D2L receptors, sequence (P61169 whole entry): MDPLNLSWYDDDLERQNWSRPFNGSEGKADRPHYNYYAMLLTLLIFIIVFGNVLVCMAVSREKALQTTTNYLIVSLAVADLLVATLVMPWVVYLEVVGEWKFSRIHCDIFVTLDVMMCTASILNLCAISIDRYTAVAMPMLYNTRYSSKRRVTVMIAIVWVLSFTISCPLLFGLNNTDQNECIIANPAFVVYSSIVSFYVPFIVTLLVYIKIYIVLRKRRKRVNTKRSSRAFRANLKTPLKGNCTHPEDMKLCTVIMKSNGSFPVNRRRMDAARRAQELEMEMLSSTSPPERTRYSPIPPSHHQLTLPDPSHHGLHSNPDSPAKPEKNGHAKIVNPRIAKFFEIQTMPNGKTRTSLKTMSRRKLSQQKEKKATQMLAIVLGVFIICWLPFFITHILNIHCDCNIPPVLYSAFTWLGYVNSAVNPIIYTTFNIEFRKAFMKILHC
human DA D2 receptors, sequence (P14416 whole entry): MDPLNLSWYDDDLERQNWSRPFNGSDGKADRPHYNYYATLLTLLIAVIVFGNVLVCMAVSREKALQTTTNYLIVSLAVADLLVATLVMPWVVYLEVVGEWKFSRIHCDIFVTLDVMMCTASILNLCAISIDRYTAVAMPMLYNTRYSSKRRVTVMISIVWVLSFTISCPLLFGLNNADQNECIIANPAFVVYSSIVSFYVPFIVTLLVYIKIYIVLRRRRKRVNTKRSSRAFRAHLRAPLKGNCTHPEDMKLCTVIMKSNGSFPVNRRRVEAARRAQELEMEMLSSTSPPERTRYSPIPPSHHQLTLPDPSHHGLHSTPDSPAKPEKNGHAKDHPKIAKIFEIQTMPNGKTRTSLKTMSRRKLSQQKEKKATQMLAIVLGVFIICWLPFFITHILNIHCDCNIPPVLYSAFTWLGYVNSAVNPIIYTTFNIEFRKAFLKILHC
human DA D3 receptors, sequence (P35462 whole entry): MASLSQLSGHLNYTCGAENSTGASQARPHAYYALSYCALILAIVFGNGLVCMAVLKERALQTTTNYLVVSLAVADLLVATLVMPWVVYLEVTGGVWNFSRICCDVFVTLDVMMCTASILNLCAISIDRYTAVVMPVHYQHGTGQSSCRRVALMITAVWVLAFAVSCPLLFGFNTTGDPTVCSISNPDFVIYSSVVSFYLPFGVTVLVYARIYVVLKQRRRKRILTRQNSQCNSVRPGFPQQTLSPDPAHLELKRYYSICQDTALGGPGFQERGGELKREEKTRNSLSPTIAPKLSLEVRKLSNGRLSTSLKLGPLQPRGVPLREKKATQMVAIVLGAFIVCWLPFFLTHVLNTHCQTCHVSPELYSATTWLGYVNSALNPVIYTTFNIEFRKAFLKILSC

**Q.** Which results are given for `CCCN(CCN1CCN(c2ccc3[nH]c4ccccc4c3c2)CC1)[C@H]1CCc2nc(N)sc2C1` [(−)-91b, (S)—N^6-(2-(4-(9H-carbazol-3-yl)piperazin-1-yl)ethyl)-N^6-propyl-4,5,6,7-tetrahydrobenzo[d]thiazole-2,6-diamine]?
**A.** viability of PC12 cells treated with α-syn seeded samples formed with compound (PC12 cells [1]): 71%; Ki (cloned rat D2L receptors): 135 nM; D2/D3 (cloned rat D2L receptors): 35; EC50 (human DA D3 receptors; CHO cells, read-out: EC50 (GTPγS), D3): 0.96 nM; Emax (human DA D3 receptors): 87 to 93%; decrease in ThT fluorescence compared to seeded α-syn (α-syn): 16 fold; EC50 (human DA D2 receptors; CHO cells, read-out: EC50 (GTPγS), D2): 48.7 nM; Emax (human DA D2 receptors): 87 to 93%; duration of locomotor activation [2]: significant enhancement of locomotion for the duration of the study of 6 h; reversal of reserpine-induced akinesia / hypolocomotion (horizontal activity) [2]: significantly reversed akinesia; also recorded: significantly different; concentration of greatest protective effect (PC12 cells [3]): 5 µM; increase in cell survival compared to 6-OHDA treated alone (PC12 cells [3]): ~20%

**Q.** With `CCCN(CCN1CCN(c2ccc3c(c2)[nH]c2ccccc23)CC1)[C@H]1CCc2c(O)cccc2C1` [Compound (−)-95a, (S)-6-((2-(4-(9H-carbazol-2-yl)piperazin-1-yl)ethyl)(propyl)amino)-5,6,7,8-tetrahydronaphthalen-1-ol] as the molecule, how does the “viability of PC12 cells treated with α-syn seeded samples formed with compound” value (PC12 cells [1]) read?
**A.** 72%

**Q.** And the Ki (cloned rat D2L receptors)?
**A.** 71.2 nM

**Q.** And the D2/D3 (cloned rat D2L receptors)?
**A.** 177

**Q.** What about the EC50 (human DA D3 receptors) of the same molecule?
**A.** 0.23 nM

**Q.** And the Emax (human DA D3 receptors)?
**A.** 85 to 92%

**Q.** What about the “decrease in ThT fluorescence compared to seeded α-syn” value (α-syn) of the same molecule?
**A.** 3 fold

**Q.** What about the EC50 (human DA D2 receptors) of the same molecule?
**A.** 0.87 nM

**Q.** And the Emax (human DA D2 receptors)?
**A.** 85 to 92%

**Q.** What about the “duration of locomotor activation” value [2] of the same molecule?
**A.** significant enhancement of locomotion for the duration of the study of 6 h

**Q.** And the “reversal of reserpine-induced akinesia / hypolocomotion (horizontal activity)” value [2]?
**A.** significantly reversed akinesia; also recorded: highest in vivo activity; also recorded: significantly different

**Q.** What about the “concentration of greatest protective effect” value (PC12 cells [3]) of the same molecule?
**A.** 10 µM

**Q.** What about the “increase in cell survival compared to 6-OHDA treated alone” value (PC12 cells [3]) of the same molecule?
**A.** 15%
